From ChEMBL document CHEMBL1144944, “Discovery of an orally efficacious inhibitor of coagulation factor Xa which incorporates a neutral P1 ligand” (J Med Chem, 2003)

Columns and labels:
[1] = Ionization constant was determined for the compound; assay type: physicochemical
Coagulation factor X = Coagulation factor X (Homo sapiens, UniProt P00742); assay: In vitro binding affinity for human Coagulation factor X
Prothrombin = Prothrombin (Homo sapiens, UniProt P00734); assay: Binding affinity towards thrombin
Serine protease 1 = Serine protease 1 (Homo sapiens, UniProt P07477); assay: Binding affinity towards trypsin
Sequence of Serine protease 1 (P07477 whole entry): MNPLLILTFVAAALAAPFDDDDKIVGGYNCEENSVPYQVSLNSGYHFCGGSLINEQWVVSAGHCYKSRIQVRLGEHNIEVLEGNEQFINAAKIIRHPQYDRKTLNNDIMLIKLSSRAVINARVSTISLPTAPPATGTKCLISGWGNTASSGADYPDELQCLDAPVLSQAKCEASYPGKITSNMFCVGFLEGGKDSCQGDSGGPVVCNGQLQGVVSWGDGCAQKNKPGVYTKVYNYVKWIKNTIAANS

Caco-2 = assay: Compound was tested in vitro for its percent absorption towards CaCo-2 cell monolayer; assay type: functional, cell-based; conditions: Homo sapiens
[2] = Oral bioavailability in dog (dose 10 mg/kg); assay type: ADME, organism-based, Canis lupus familiaris; conditions: in vivo
[3] = Half life period after peroral administration (10 mpk) was determined in dog; assay type: ADME, organism-based, Canis lupus familiaris; conditions: in vivo, po, 10 mg/kg
Canis familiaris = organism: Canis familiaris; assay: Concentration of inhibitor required to double the activated partial thromboplastin time in dog was determined; assay type: functional, organism-based; conditions: Canis lupus familiaris
Homo sapiens = organism: Homo sapiens; assay: Concentration of inhibitor required to double the activated partial thromboplastin time in human was determined; assay type: functional, organism-based
[4] = Maximum plasma concentration after peroral administration (10 mpk) was determined in dog; assay type: ADME, organism-based, Canis lupus familiaris; design: route oral; conditions: po, 10 mg/kg
[5] = Ionization constant is the negative logarithm of the equilibrium coefficient of the neutral and charged forms of the compound; assay type: physicochemical
[6] = Percent oral bioavailability after peroral administration (5 mpk) was determined in dog; assay type: ADME, organism-based, Canis lupus familiaris; conditions: in vivo, 5 mg/kg
[7] = Half life period after peroral administration (5 mpk) was determined in dog; assay type: ADME, organism-based, Canis lupus familiaris; conditions: in vivo, po, 5 mg/kg
[8] = Maximum plasma concentration after peroral administration (5 mpk) was determined in dog; assay type: ADME, organism-based, Canis lupus familiaris; design: route oral; conditions: po, 5 mg/kg

Sequence of Coagulation factor X (P00742 41-179 limits assumed): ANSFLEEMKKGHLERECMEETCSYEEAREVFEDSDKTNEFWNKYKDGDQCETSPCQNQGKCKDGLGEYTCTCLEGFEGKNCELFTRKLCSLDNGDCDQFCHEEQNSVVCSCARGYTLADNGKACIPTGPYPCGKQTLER
Sequence of Coagulation factor X (P00742 235-488 limits assumed): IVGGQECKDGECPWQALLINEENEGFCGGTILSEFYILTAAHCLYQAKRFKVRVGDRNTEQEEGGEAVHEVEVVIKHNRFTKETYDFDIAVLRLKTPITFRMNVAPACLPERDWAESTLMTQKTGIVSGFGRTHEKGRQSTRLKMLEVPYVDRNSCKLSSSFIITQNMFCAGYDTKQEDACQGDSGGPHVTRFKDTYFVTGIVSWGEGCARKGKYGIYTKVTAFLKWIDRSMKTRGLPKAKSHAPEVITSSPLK

SMILES | Ki (Coagulation factor X) [nM] | Ki (Prothrombin) [nM] | Ki (Serine protease 1) [nM] | further results
O=C1CN(S(=O)(=O)c2cc3ccc(Cl)cc3s2)CCN1Cc1cc2cc[nH]cc-2n1 | 45 | 3900 | > 2900 | pKa [1]: 8
COc1cc(/C=C/S(=O)(=O)N2CCN(Cc3cc4c[nH]ccc-4n3)C(=O)C2)sc1Cl | > 1200 |  |  | 
Cn1c(CN2CCN(S(=O)(=O)c3cc4ccc(Cl)cc4s3)CC2=O)cc2cnccc21 | 3 | > 3900 | > 2900 | Absorption (Caco-2): 3%
O=C1CN(S(=O)(=O)c2cc3ccc(Cl)cc3s2)CCN1Cc1cc2[nH]cccc-2n1 | > 1200 | > 3900 | > 2900 | pKa [1]: 6.9
O=C1CN(S(=O)(=O)c2cc3ncc(Cl)cc3s2)CCN1Cc1cc2c[nH]ccc-2n1 | 1200 |  |  | 
O=C1CN(S(=O)(=O)c2cc3ccc(Cl)cc3s2)CCN1Cc1cc2c(O)[nH]ccc-2n1 | > 1200 | > 3900 | > 2900 | 
O=C1CN(S(=O)(=O)c2ccc(-c3ccc(Cl)s3)s2)CCN1Cc1cc2c[nH]ccc-2n1 | 23 |  |  | 
O=C1CN(S(=O)(=O)c2cc3ccccc3s2)CCN1Cc1cc2c[nH]ccc-2n1 | 959 |  |  | 
O=C1CN(S(=O)(=O)/C=C/c2ccc(Cl)cc2)CCN1Cc1cc2c[nH]ccc-2n1 | 48 |  |  | 
COC(=O)Cn1c(CN2CCN(S(=O)(=O)c3cc4ccc(Cl)cc4s3)CC2=O)cc2cnccc21 | 18 | > 3900 | > 2900 | Absorption (Caco-2): 47.6%
O=C1CN(S(=O)(=O)CCc2ccc(Cl)s2)CCN1Cc1cc2c[nH]ccc-2n1 | 128 |  |  | 
O=C1CN(S(=O)(=O)c2cc3ncccc3s2)CCN1Cc1cc2c[nH]ccc-2n1 | > 1200 |  |  | 
O=C1CN(S(=O)(=O)c2cc3ccc(Br)cc3s2)CCN1Cc1cc2c[nH]ccc-2n1 | 3 |  |  | 
Nc1[nH]ccc2nc(CN3CCN(S(=O)(=O)c4cc5ccc(Cl)cc5s4)CC3=O)cc1-2 |  | > 3900 | > 2900 | pKa [1]: 9.3
O=C1CN(S(=O)(=O)c2cc3ccc(Cl)cc3s2)CCN1Cc1nc2cc[nH]cc-2n1 | > 1200 | > 3900 | > 2900 | pKa [1]: 6.1
NC(=O)Cn1c(CN2CCN(S(=O)(=O)c3cc4ccc(Cl)cc4s3)CC2=O)cc2cnccc21 | 8 | > 3900 | > 2900 | Absorption (Caco-2): 7%
O=C1CN(S(=O)(=O)c2cc3cccnc3s2)CCN1Cc1cc2c[nH]ccc-2n1 | > 1200 |  |  | 
O=C1CN(S(=O)(=O)c2cc3ccc(Cl)cc3s2)CCN1Cc1cc2c[n+]([O-])ccc2[nH]1 | 38 | > 3900 | > 2900 | 
O=C1CN(S(=O)(=O)c2cc3ccc(Cl)nc3s2)CCN1Cc1cc2c[nH]ccc-2n1 | 4 |  |  | 
O=C1CN(S(=O)(=O)c2cc3ccc(Cl)cc3s2)CCN1Cc1cc2cnccc2o1 | 1220 | > 3900 | > 2900 | pKa [1]: 5.8
O=C1CN(S(=O)(=O)c2sc3ccccc3c2Cl)CCN1Cc1cc2c[nH]ccc-2n1 | > 1200 |  |  | 
O=C1CN(S(=O)(=O)c2cc3ccc(Cl)cc3s2)CCN1Cc1cc2c[nH]ccc-2n1 |  | 2900 | > 2900 | bioavailability [2]: 99%; half-life [3]: 36 min; Absorption (Caco-2): 6%; Concentration (Canis familiaris): 5 µM; Concentration (Homo sapiens): 2 µM; Cmax [4]: 658 nM; pKa [5]: 8.3
O=C1CN(S(=O)(=O)/C=C/c2ccc(Cl)s2)CCN1Cc1cc2c[nH]ccc-2n1 |  |  |  | bioavailability [6]: 97%; half-life [7]: 52 min; Cmax [8]: 1640 nM; Concentration (Canis familiaris): 2.2 µM; Concentration (Homo sapiens): 0.59 µM
O=C1CN(S(=O)(=O)c2cc3ccc(Cl)cc3s2)CCN1Cc1cc2cnccc2n1CCO |  |  |  | bioavailability [2]: 11%; half-life [3]: 139 min; Cmax [4]: 783 nM
O=C(O)Cn1c(CN2CCN(S(=O)(=O)c3cc4ccc(Cl)cc4s3)CC2=O)cc2cnccc21 | 154 | > 3900 | > 2900 | 
O=C1CN(S(=O)(=O)c2ccc(-c3ccc(Cl)cc3)cc2)CCN1Cc1cc2c[nH]ccc-2n1 | > 1200 |  |  | 
